Numbers after ± are expanded uncertainties.

Mass density data for two compounds are collected here from the NIST ThermoML archive (doi:10.1021/acs.jced.6b00360).

For the series the following is noted: Liquid, Vibrating tube method.

Take `COC(=O)CCCCCCCCCCC(=O)OC` [dimethyl dodecanoate]: the mass density reads like this: (313.15 K, 101.33 kPa) 959.4 ± 3.9 kg/m3; (323.15 K, 101.33 kPa) 951 ± 3.9 kg/m3; (333.15 K, 101.33 kPa) 943.1 ± 3.9 kg/m3; (343.15 K, 101.33 kPa) 934.4 ± 3.8 kg/m3; (352.15 K, 101.33 kPa) 927 ± 3.8 kg/m3.
`C=CCCCCCCCCC(=O)OC` [methyl 10-undecenoate]: the mass density (280.15 K, 100 kPa) amounted to 897.46 ± 5.7 kg/m3; the mass density (280.15 K, 40000 kPa) was 914.37 ± 5.8 kg/m3; the mass density (293.15 K, 100 kPa) was found to be 886.83 ± 5.6 kg/m3; the mass density (293.15 K, 40000 kPa) is 906.75 ± 5.8 kg/m3; the mass density (303.15 K, 100 kPa) was 878.63 ± 5.5 kg/m3; the mass density (303.15 K, 40000 kPa) was 895.63 ± 5.7 kg/m3. Besides, the mass density is on record as 870.71 ± 5.5 kg/m3 (313.15 K, 100 kPa); 888.48 ± 5.7 kg/m3 (313.15 K, 40000 kPa); 862.33 ± 5.4 kg/m3 (323.15 K, 100 kPa); 881.75 ± 5.6 kg/m3 (323.15 K, 40000 kPa); 854.49 ± 5.3 kg/m3 (333.15 K, 100 kPa); 874.61 ± 5.6 kg/m3 (333.15 K, 40000 kPa). Further, the mass density by setting is: (343.15 K, 100 kPa) 845.8 ± 5.3 kg/m3; (352.15 K, 100 kPa) 838.42 ± 5.2 kg/m3.

As a reminder, the mass density is the mass of a sample divided by its volume.
